In data set [1] the test system is patients with PBC. To be noted: cited from earlier work.
For data set [2], the system named is subjects with PBC. In words: Clinical study of elafibranor, biochemical markers in plasma. To be noted: human, in vivo.

Here are results for two molecules from patent US20250064763A1, “METHODS OF TREATMENT OF PRIMARY BILIARY CHOLANGITIS” (Ipsen Pharma, priority 2023, published 2025).

As to `CC[C@H]1[C@@H](O)[C@@H]2[C@H](CC[C@]3(C)[C@@H]([C@H](C)CCC(=O)O)CC[C@@H]23)[C@@]2(C)CC[C@@H](O)C[C@@H]12` [OCA, obeticholic acid], the effect on pruritus entry in data set [1] (phase III study, OCA groups compared to placebo) is “exacerbate pruritus”. In addition, in data set [1] (post marketing reports, PBC patients with compensated or decompensated cirrhosis), the liver injury result was “led to hepatic decompensation and liver failure”. As for `CSc1ccc(C(=O)/C=C/c2cc(C)c(OC(C)(C)C(=O)O)c(C)c2)cc1` [elafibranor], the “biochemical markers in the plasma” value in data set [2] is reported as “relevant reduction”.
